# Assay results reported in ChEMBL document CHEMBL1147054, “Structural basis of enantioselective inhibition of cyclooxygenase-1 by S-alpha-substituted indomethacin ethanolamides” (J Biol Chem, 2007).
# Target: T1, Prostaglandin G/H synthase 1 (Ovis aries) (UniProt P05979)
# T1 sequence (whole entry): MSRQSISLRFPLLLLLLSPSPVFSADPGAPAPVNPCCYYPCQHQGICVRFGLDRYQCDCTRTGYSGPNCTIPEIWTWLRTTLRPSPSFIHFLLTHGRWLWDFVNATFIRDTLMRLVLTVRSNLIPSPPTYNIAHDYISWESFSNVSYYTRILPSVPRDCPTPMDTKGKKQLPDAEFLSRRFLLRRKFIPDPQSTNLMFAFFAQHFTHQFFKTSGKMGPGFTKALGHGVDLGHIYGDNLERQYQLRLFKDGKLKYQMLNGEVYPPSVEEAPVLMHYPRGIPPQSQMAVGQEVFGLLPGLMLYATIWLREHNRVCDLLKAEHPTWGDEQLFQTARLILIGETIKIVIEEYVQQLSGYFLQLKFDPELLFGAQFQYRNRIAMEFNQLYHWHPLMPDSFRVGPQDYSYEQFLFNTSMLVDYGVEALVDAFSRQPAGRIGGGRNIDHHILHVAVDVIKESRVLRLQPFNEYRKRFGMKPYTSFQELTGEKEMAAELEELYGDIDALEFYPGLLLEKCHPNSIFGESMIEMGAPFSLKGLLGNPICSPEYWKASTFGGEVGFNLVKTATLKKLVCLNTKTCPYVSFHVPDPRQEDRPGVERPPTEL
# Conditions: 1 uM
# Description: Binding affinity to ovine COX1 at 1 uM to 25 uM
row,Kinact [µM],Structure (SMILES)
1,2.3,CC[C@H](CO)NC(=O)Cc1c(C)n(C(=O)c2ccc(Cl)cc2)c2ccc(OC)cc12
2,4,CC[C@@H](CO)NC(=O)Cc1c(C)n(C(=O)c2ccc(Cl)cc2)c2ccc(OC)cc12
